Our source for the IC50 values is patent publication US10023592B2, “Bromodomain inhibitors” (Celgene Quanticel Research, Inc., priority 2013, dated 2018).

Assay [1] addresses BRD4(BD1) (Homo sapiens (Human), UniProt O60885). In words: In vitro enzyme inhibition assay (BRD4 AlphaScreen). The assay is classed as binding. The essentials:
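His-tagged BRD4 tested by AlphaScreen for binding of biotinylated H4K5/8/12/16-tetraacetyl peptide. After 20 min at room temperature, streptavidin donor and nickel chelate acceptor beads added (5 μg/mL final each). IC50 determined.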
A general note: Alpha assays give light when donor and acceptor beads are brought close together.

Assay [2] has as its system Raji, human Burkitts lymphoma cells. The assay is described as follows: Cell-MTS proliferation assay, Raji. It is filed as cell-based. Particulars: Homo sapiens, 168 hr. The procedure, abridged: (§1)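 Seed: Raji 15,000, HL-60 5,000, NCI-H460 3,000 cells/96-well. +24 hr: 11-pt compound dilution, 100 μM–2.0 nM final. 7 d culture, MTS reagent, read OD490; IC50 vs DMSO, background subtracted.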
(Tetrazolium dyes change colour on reduction, which living cells bring about.)

The test system of assay [3] is HL-60, human proleukemia cells. The assay is described as follows: Cell-MTS proliferation assay, HL-60. The assay is classed as cell-based. Particulars: Homo sapiens, 168 hr. The procedure, abridged:
as §1

Assay [4] has as its system NCI-H460, human non-small cell lung cancer cells. In words: Cell-MTS proliferation assay, NCI-H460. The assay is classed as cell-based. Particulars: Homo sapiens, 168 hr. The procedure, abridged: as §1
Setting [5] is: in vitro enzyme inhibition assay.
[6] abbreviates: NCI-H460, Cell-MTS proliferation.
Where [7] appears, read: Cell-MTS proliferation, Raji cells.
Setting [8] is: Cell-MTS proliferation, HL-60 cells.
The mark [9] stands for this setting: Cell-MTS proliferation, NCI-H460 cells.
Where [10] appears, read: Raji, Cell-MTS, class symbols A/B/C.
[11] abbreviates: HL-60, Cell-MTS, class symbols A/B/C.
Where [12] appears, read: NCI-H460, Cell-MTS, class symbols A/B/C.

Each structure is given as a SMILES string. pIC50: −log10 of the molar value. Where only a bound is given, the exact number is not on record here.

For `CCS(=O)(=O)c1cc(-c2cn(C)c(=O)c3ccccc23)c(NCC2CC2)s1` [Example 205, 4-[2-(cyclopropylmethylamino)-5-ethylsulfonylthiophen-3-yl]-2-methylisoquinolin-1-one], the pIC50 in assay [1] (setting [5]) was > 6.30; in assay [2] (Raji, Cell-MTS proliferation), 5.30 to 6.30; in assay [3] (HL-60, Cell-MTS proliferation), 5.30 to 6.30; in assay [4] (setting [6]) it was < 5.30.

Turning to `CCn1cc(-c2cc(CS(C)(=O)=O)ccc2Oc2ccc(F)cc2F)cc(C)c1=O` [Example 429, 5-[2-(2,4-difluorophenoxy)-5-(methylsulfonylmethyl)phenyl]-1-ethyl-3-methylpyridin-2-one], the pIC50 was > 6.30 in assay [1] (setting [5]), > 6.30 in assay [2] (setting [7]), > 6.30 in assay [3] (setting [8]) and < 5.30 in assay [4] (setting [9]).

Consider `CCS(=O)(=O)Nc1ccc(OC2CCOC2)c(-c2cc(C)c(=O)n(C)c2)c1` (stereo not shown) [Example 445, N-[3-(1,5-dimethyl-6-oxopyridin-3-yl)-4-(oxolan-3-yloxy)phenyl]ethanesulfonamide], for which the pIC50 in assay [1] (setting [5]) was > 6.30; in assay [2] (setting [7]), > 6.30; in assay [3] (setting [8]), > 6.30; in assay [4] (setting [9]), < 5.30.

Consider `CCS(=O)(=O)Nc1ccc(Oc2ccc(F)cc2F)c(-c2cn(C)c(=O)c3ccncc23)c1` [Example 127, N-[4-(2,4-difluorophenoxy)-3-(2-methyl-1-oxo-2,6-naphthyridin-4-yl)phenyl]ethanesulfonamide], for which the pIC50 in assay [1] (class symbols A/B/C) is > 6.30; in assay [2] (setting [10]), > 6.30; in assay [3] (setting [11]), > 6.30; in assay [4] (setting [12]), < 5.30.

In the case of `CCS(=O)(=O)Nc1ncc(OCC2CC2)c(-c2cn(C)c(=O)c3ccc(F)cc23)n1` [Example 157, N-[5-(cyclopropylmethoxy)-4-(6-fluoro-2-methyl-1-oxoisoquinolin-4-yl)pyrimidin-2-yl]ethanesulfonamide], the pIC50 in assay [1] (setting [5]) was > 6.30; in assay [2] (Raji, Cell-MTS proliferation) it was > 6.30; in assay [3] (HL-60, Cell-MTS proliferation) it was > 6.30; in assay [4] (setting [6]), < 5.30.

On to `CCS(=O)(=O)Nc1ccc(Oc2ccc(F)cc2F)c(-c2cn(C)c(=O)c3oc(C)cc23)c1` [Example 269, N-[4-(2,4-difluorophenoxy)-3-(2,6-dimethyl-7-oxofuro[2,3-c]pyridin-4-yl)phenyl]ethanesulfonamide], for which the pIC50 in assay [1] (setting [5]) is > 6.30; in assay [2] (Raji, Cell-MTS proliferation) it was > 6.30; in assay [3] (HL-60, Cell-MTS proliferation), > 6.30; in assay [4] (setting [6]), < 5.30.

In the case of `Cn1cc(-c2cc(CS(C)(=O)=O)ccc2OCC(F)(F)F)c2ccccc2c1=O` [Example 488, 2-methyl-4-[5-(methylsulfonylmethyl)-2-(2,2,2-trifluoroethoxy)phenyl]isoquinolin-1-one], the pIC50 is > 6.30 in assay [1] (setting [5]), > 6.30 in assay [2] (setting [7]), > 6.30 in assay [3] (setting [8]) and < 5.30 in assay [4] (setting [9]).

For the compound `Cn1cc(-c2cc(S(C)(=O)=O)ccc2OCC2CC2)n2cncc2c1=O` [Example 130, 5-[2-(cyclopropylmethoxy)-5-methylsulfonylphenyl]-7-methylimidazo[1,5-a]pyrazin-8-one], the pIC50 in assay [1] (class symbols A/B/C) was > 6.30; in assay [2] (setting [10]), 5.30 to 6.30; in assay [3] (setting [11]), > 6.30; in assay [4] (setting [12]), < 5.30.

Regarding `Cn1cc(-c2cc(S(N)(=O)=O)ccc2Oc2ccc(F)cc2F)ccc1=O` [Example 118, 4-(2,4-difluorophenoxy)-3-(1-methyl-6-oxopyridin-3-yl)benzenesulfonamide], the pIC50 in assay [1] (class symbols A/B/C) is > 6.30; in assay [2] (setting [10]), > 6.30; in assay [3] (setting [11]), > 6.30; in assay [4] (setting [12]) it was < 5.30.

On to `CCS(=O)(=O)Nc1ccc(Oc2ccc(F)cc2F)c(-c2cn(C)c(=O)cc2F)c1` [Example 139, N-[4-(2,4-difluorophenoxy)-3-(4-fluoro-1-methyl-6-oxopyridin-3-yl)phenyl]ethanesulfonamide], for which the pIC50 in assay [1] (class symbols A/B/C) was > 6.30; in assay [2] (setting [10]), > 6.30; in assay [3] (setting [11]), > 6.30; in assay [4] (setting [12]), < 5.30.

For the compound `CCS(=O)(=O)c1ccc(OCC2CC2)c(-c2cc(C)c(=O)n(C)c2)c1` [Example 450, 5-[2-(cyclopropylmethoxy)-5-ethylsulfonylphenyl]-1,3-dimethylpyridin-2-one], the pIC50 was > 6.30 in assay [1] (setting [5]), > 6.30 in assay [2] (setting [7]), > 6.30 in assay [3] (setting [8]) and < 5.30 in assay [4] (setting [9]).

For the compound `CCS(=O)(=O)Nc1cnc(OCC2CC2)c(-c2cn(C)c(=O)c3sc(C(N)=O)cc23)c1` [Example 268, 4-[2-(cyclopropylmethoxy)-5-(ethylsulfonylamino)pyridin-3-yl]-6-methyl-7-oxothieno[2,3-c]pyridine-2-carboxamide], the pIC50 is > 6.30 in assay [1] (setting [5]); 5.30 to 6.30 in assay [2] (Raji, Cell-MTS proliferation); > 6.30 in assay [3] (HL-60, Cell-MTS proliferation); < 5.30 in assay [4] (setting [6]).

`CCS(=O)(=O)Nc1ccc(OC2CCC(F)(F)CC2)c(-c2cc(C)c(=O)n(C)c2)c1` [Example 449, N-[4-(4,4-difluorocyclohexyl)oxy-3-(1,5-dimethyl-6-oxopyridin-3-yl)phenyl] ethanesulfonamide]: the pIC50 in assay [1] (setting [5]) was > 6.30; in assay [2] (setting [7]), > 6.30; in assay [3] (setting [8]), > 6.30; in assay [4] (setting [9]) it was < 5.30.

Regarding `CCS(=O)(=O)c1ccc(NC2CCC(F)(F)CC2)c(-c2cc(C)c(=O)n(C)c2)c1` [Example 397, 5-[2-[(4,4-difluorocyclohexyl)amino]-5-ethylsulfonylphenyl]-1,3-dimethylpyridin-2-one], the pIC50 in assay [1] (setting [5]) is > 6.30; in assay [2] (setting [7]) it was > 6.30; in assay [3] (setting [8]) it was > 6.30; in assay [4] (setting [9]) it was < 5.30.

With `Cn1cc(-c2cc(S(C)(=O)=O)ccc2O[C@H]2CC[C@H](O)CC2)c2ccc(F)cc2c1=O` [Example 187, 7-fluoro-4-[2-(trans-4-hydroxycyclohexyl)oxy-5-methylsulfonylphenyl]-2-methylisoquinolin-1-one], the pIC50 was > 6.30 in assay [1] (setting [5]); > 6.30 in assay [2] (Raji, Cell-MTS proliferation); > 6.30 in assay [3] (HL-60, Cell-MTS proliferation); < 5.30 in assay [4] (setting [6]).

Turning to `Cn1cc(-c2cc(S(C)(=O)=O)ccc2O[C@H]2CC[C@@H](N)CC2)c2ccccc2c1=O` [Example 183, 4-[2-(cis-4-aminocyclohexyl)oxy-5-methylsulfonylphenyl]-2-methylisoquinolin-1-one], the pIC50 in assay [1] (setting [5]) was > 6.30; in assay [2] (Raji, Cell-MTS proliferation) it was < 5.30; in assay [3] (HL-60, Cell-MTS proliferation) it was 5.30 to 6.30; in assay [4] (setting [6]) it was < 5.30.

For the compound `CCS(=O)(=O)Nc1ccc(Oc2ccc(F)cc2F)c(-c2cc(C3CC3)c(=O)n(C)c2)c1` [Example 140, N-[3-(5-cyclopropyl-1-methyl-6-oxopyridin-3-yl)-4-(2,4-difluorophenoxy)phenyl]ethanesulfonamide], the pIC50 was > 6.30 in assay [1] (setting [5]); > 6.30 in assay [2] (Raji, Cell-MTS proliferation); > 6.30 in assay [3] (HL-60, Cell-MTS proliferation); < 5.30 in assay [4] (setting [6]).

Turning to `CCS(=O)(=O)c1ccc(Nc2ccc(F)cc2F)c(-c2cc(C)c(=O)n(C)c2)c1` [Example 396, 5-[2-(2,4-difluoroanilino)-5-ethylsulfonylphenyl]-1,3-dimethylpyridin-2-one], the pIC50 is > 6.30 in assay [1] (setting [5]), > 6.30 in assay [2] (setting [7]), > 6.30 in assay [3] (setting [8]) and < 5.30 in assay [4] (setting [9]).

For `Cn1cc(-c2nc(CS(C)(=O)=O)ncc2OCC2CC2)c2ccccc2c1=O` [Example 143, 4-[5-(cyclopropylmethoxy)-2-(methylsulfonylmethyl)pyrimidin-4-yl]-2-methylisoquinolin-1-one], the pIC50 in assay [1] (setting [5]) is > 6.30; in assay [2] (Raji, Cell-MTS proliferation) it was 5.30 to 6.30; in assay [3] (HL-60, Cell-MTS proliferation) it was 5.30 to 6.30; in assay [4] (setting [6]), < 5.30.

What is called pIC50 is the negative decadic logarithm of the IC50, by convention in mol/L. Low readings indicate a high IC50, high ones a low IC50.
